Where two headings read alike, the source gives them in different places.
Key:
JIMT-1 cells [1] = experiment: JIMT-1 cell growth inhibition / cell viability (SRB assay); format: cell-based; settings: Homo sapiens
Procedure: The ability of the compounds of the present disclosure to treat TACC3-mediated cancers, or associated symptoms or complications thereof, was determined using the following procedures. The compounds of the present disclosure were tested for their activity against cell death induction using a JIMT-1 cell line, which was a cell line having high level of TACC3. The concentration of each compound that was required for half-maximal inhibition of cell proliferation was calculated by a GraphPad Prism (GraphPad Software).

JIMT-1 cells [2] = experiment: Western blot of mitotic arrest, DNA damage and apoptosis markers; format: cell-based, human; settings: 24 hours, dose response
Procedure: JIMT-1, MDA-MB-436, MDA-MB-157 and BT-474 T-DM1R cell lines were tested with respect to their response to these three drugs. […] Although higher KHS101 doses was included, which were used by others (Campo & Breuer, 2018), an induction of these markers was only observed at very high doses.

JIMT-1 cells [3] = experiment: Annexin V/PI staining; format: cell-based, human; settings: 500 nM, 72 h; vehicle 4.1%
RT112 and RT4 = experiment: Cell viability (SRB) of FGFR3-TACC3 fusion expressing cell lines; format: cell-based, human; settings: both models RT112 and RT4, 3 days
Procedure: KHS101 (Sigma Aldrich) and SPL-B (Axon MedChem, VA, USA) were dissolved in 100% DMSO to yield a stock concentration of 50 mM. Newly synthesized molecules were dissolved in 100% DMSO to yield a stock concentration of 10 mM. […] Cell viability was measured 72 hours after treatment with Sulforhodamine B (SRB, Sigma Aldrich) assay as recommended by the manufacturer.

NCI-60 human cell lines = experiment: NCI-60 five-dose screen; format: cell-based
Procedure: Detailed screening methodology can be accessed from https://dtp.cancer.gov/discovery_development/nci-60/methodology.htm webpage. Briefly, 24 h after cell seeding into 96-well plates, cells were treated with 5-log M concentration range of the compound for 2 days. Cytotoxicity was assessed using SRB assay. The data presented in the FIG.s are the average values of both experiments.

JIMT-1 xenografts = experiment: JIMT-1 xenograft tumor growth in female nude mice; format: in vivo
EMT6 = settings: 25 mg/kg every day orally
Procedure: Murine triple negative breast cancer (TNBC) cell line, EMT6, which is a fast-growing and highly aggressive model (Yang, Yang et al. 2017), was injected into MFPs of syngeneic Balb/c mice.
Six-to-eight-week-old female athymic nude or Balb/c mice were housed with a temperature-controlled and 12-hour light/12-hour dark cycle environment. This study was carried out in accordance with Institutional Animal Care and Use Committee of Bilkent University and performed according to the institution's guidelines and animal research principles. For in vivo breast cancer tumor growth in nude mice, 4×10^6 JIMT-1 cells were prepared in 150 μl of 1:1 DMEM and Matrigel (Corning, N.Y., USA), v/v) and injected into the mammary fat pads (MFP) of female nude mice. Mouse weight and tumor volume were measure daily using calipers. Tumor volumes were calculated as length×width^2×0.5. Once the tumor volume had reached about 90-100 mm^3, xenografts were randomized into groups. […] Mice were sacrificed 20-30 days after initiation of the treatments, and the tumors were collected and stored for subsequent analyses. […] 1×10^6 EMT-6 cells were prepared in PBS and injected into MFPs of mice. […] Survival was calculated using a predefined tumor volume cut-off of 1500 mm^3.

4T1-Luc2 = 4T1-Luc2 lung metastasis model; format: in vivo, mice
Procedure: Next, to examine the effects of TACC3 inhibition on metastatic growth, an aggressive murine mammary tumor cells, 4T1-Luc2 (luciferase labelled), were injected intravenously to immunocompetent female mice. […] Metastatic outgrowth was monitored with in vivo imaging system (IVIS) by measuring bioluminescence.
Highly aggressive and metastatic 4T1-Luc2 (luciferase labelled) cells were prepared in PBS as 1×10^6 cells/mouse and injected intravenously to Balb/c female mice. Metastasis development was monitored using in vivo imaging system (IVIS) and bioluminescence was quantified regularly. […] Survival was calculated when mice died.

[4] = Log D, octanol/sodium phosphate buffer; format: physicochemical; settings: octanol/sodium phosphate buffer (50 mM, pH 7.4); read-out: log D7.4
[5] = Kinetic solubility in sodium phosphate buffer; format: physicochemical; settings: pH 7.4, 25° C., 2 h
CYP2C9 = CYP2C9 (Homo sapiens, UniProt P11712); settings: read-out: IC50 CYP2C9; human liver microsomes
CYP2CD6 = CYP2CD6 (Homo sapiens, UniProt P10635); settings: read-out: IC50 CYP2CD6; human liver microsomes
TACC3 [6] = target: T1, TACC3 (Homo sapiens, UniProt Q9Y6A5); experiment: Cellular thermal shift assay (CETSA) in intact JIMT-1 cells; format: binding; set-up: endogenous in cells; host or cells: JIMT-1; settings: 1 μM, 6 h
Text: Protein thermal melting curves are also showing a thermal shift between vehicle and compound 5 treated band intensities. This interaction was also validated with isothermal titration calorimetry (ITC). […] DARTS is a label free-strategy to identify potential direct protein targets for small molecules and is based on stabilization and protection from proteolysis of the target protein upon binding to small molecules (Lomenick, Jung et al. 2011, Pai, Lomenick et al. 2015).
After treatment, cell pellets were resuspended in Tris-buffered saline (TBS) containing protease and phosphatase inhibitors. The cell suspension was divided into 6 PCR tubes and heated for 5 min to 45, 46, 47, 48, 49, 50° C. Subsequently, cells were lysed by three repeated freeze-thaw cycles with liquid nitrogen. Soluble proteins were collected with centrifugation at 20,000 g for 20 min at 4° C. and analyzed by sodium dodecyl sulfate polyacrylamide gel electrophoresis (SDS-PAGE) followed by western blot analysis.

TACC3 [7] = target: T1, TACC3; experiment: Drug affinity responsive target stability (DARTS) with JIMT-1 cell protein extracts; format: binding; set-up: endogenous in cells; host or cells: JIMT-1; settings: 10 μM
Text: DARTS is a label free-strategy to identify potential direct protein targets for small molecules and is based on stabilization and protection from proteolysis of the target protein upon binding to small molecules (Lomenick, Jung et al. 2011, Pai, Lomenick et al. 2015).

[8] = 2 mg/kg (po. or i.v) or 5 mg/kg (po.) every two days for 30 days
[9] = 5 mg/kg oral every other day for 30 days

CYP2C9, sequence (P11712 whole entry): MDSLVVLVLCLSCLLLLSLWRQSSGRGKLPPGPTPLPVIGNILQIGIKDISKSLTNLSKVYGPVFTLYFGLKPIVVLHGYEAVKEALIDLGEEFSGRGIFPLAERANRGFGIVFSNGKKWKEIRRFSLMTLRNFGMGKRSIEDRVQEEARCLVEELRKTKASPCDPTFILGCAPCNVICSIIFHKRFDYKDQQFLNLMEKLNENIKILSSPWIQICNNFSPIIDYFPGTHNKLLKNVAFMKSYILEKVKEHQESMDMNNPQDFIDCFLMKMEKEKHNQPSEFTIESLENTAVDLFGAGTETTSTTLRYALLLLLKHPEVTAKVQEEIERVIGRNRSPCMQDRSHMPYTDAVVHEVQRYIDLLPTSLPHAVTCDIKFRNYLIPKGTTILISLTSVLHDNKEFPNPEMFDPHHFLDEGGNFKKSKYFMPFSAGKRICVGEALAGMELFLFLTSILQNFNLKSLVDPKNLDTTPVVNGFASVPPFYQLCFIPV
CYP2CD6, sequence (P10635 whole entry): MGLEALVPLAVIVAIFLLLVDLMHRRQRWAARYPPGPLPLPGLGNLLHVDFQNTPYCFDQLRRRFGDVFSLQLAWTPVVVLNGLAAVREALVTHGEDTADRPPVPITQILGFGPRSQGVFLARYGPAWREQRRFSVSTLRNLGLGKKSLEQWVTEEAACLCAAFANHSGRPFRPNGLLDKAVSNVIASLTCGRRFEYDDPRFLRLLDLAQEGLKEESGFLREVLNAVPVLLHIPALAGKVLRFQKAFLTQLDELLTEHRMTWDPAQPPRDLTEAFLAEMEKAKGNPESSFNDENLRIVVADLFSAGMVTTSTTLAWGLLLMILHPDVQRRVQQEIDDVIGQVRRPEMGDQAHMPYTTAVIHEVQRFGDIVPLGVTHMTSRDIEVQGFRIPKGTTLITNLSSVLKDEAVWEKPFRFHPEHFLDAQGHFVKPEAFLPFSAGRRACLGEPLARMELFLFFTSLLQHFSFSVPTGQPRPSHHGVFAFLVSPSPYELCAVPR

COc1ccc(-c2cc(Nc3ccnc(N4CCOCC4)n3)on2)cc1 [Compound 5]
IC50 (JIMT-1 cells [1]; JIMT-1 cells, read-out: IC50): 120 nM | IC50 (JIMT-1 cells [1]; cultured cells, in-house screening on JIMT-1, read-out: IC50, suppresses cell growth): 190 nM | induction of mitotic arrest, DNA damage and apoptosis markers (JIMT-1 cells [2]): dose-dependent manner | fraction of apoptotic cells (Annexin V/PI) (JIMT-1 cells [3]): 45.6% | IC50 value compared to SPL-B and KHS101 (RT112 and RT4): lowest IC50 value | share of NCI-60 cell lines with less than 1 μM GI50 value (NCI-60 human cell lines): ~90% | GI50 (NCI-60 human cell lines; Homo sapiens, read-out: 50% growth inhibition (GI50) value, almost all cell lines): < 1000 nM | body weight of mice (JIMT-1 xenografts; [8]): did not have any negative effect on the body weight | tumor growth rate compared with control group (JIMT-1 xenografts; [8]): decreased | body weight of mice (JIMT-1 xenografts; [9]): no major effect on the body weight | tumor growth as compared to SPL-B (JIMT-1 xenografts; [9]): significant reduction of tumor growth | mice weight (JIMT-1 xenografts; 25 mg/kg, po., 23 days): did not affect the mice weight | tumor growth compared to vehicle-treated mice (JIMT-1 xenografts; 25 mg/kg, po., 23 days): very significant reduction of tumor growth | tumor weights compared to vehicle group (JIMT-1 xenografts; 25 mg/kg, po., 23 days): significantly lower | tolerability (EMT6): well tolerated | tumor growth inhibition (EMT6): significant tumor growth inhibition | increased lifespan (EMT6; compared to vehicle): 57.1% | median survival (EMT6; vehicle 14 days): 22 days | metastatic growth compared to vehicle (4T1-Luc2; 50 mg/kg daily orally): impair metastatic growth | overall survival (4T1-Luc2; 50 mg/kg daily orally): significantly improved mice overall survival | median survival (4T1-Luc2; 50 mg/kg every day orally, vehicle 19 days): 28 days | logD [4]: 2.3 | solubility [5]: low solubility | IC50 (CYP2C9): 2630 nM | IC50 (CYP2CD6): 18500 nM | stabilization of cellular TACC3 upon temperature increase (TACC3 [6]): considerably stabilized cellular TACC3 | stabilization of TACC3 protein in the presence of pronase (TACC3 [7]): TACC3 protein was stabilized
